Data from US20040086886A1, “Polymorphisms associated with cardiac arrythmia” (priority 2003, published 2004).

How the values were obtained:
Q9E-MiRP1 channels = Q9E-MiRP1 channels (Homo sapiens, UniProt Q12809+Q9Y6J6, Q9E); settings: Abbott et al. (1999); cited from earlier work
[1] = biological target: wild type MiRP1/HERG channels (Homo sapiens, UniProt Q12809); test: cell-based; settings: Ki (equilibrium inhibition constant), wild type MiRP1
[2] = biological target: wild type MiRP1/HERG channels (Homo sapiens, UniProt Q12809+Q9Y6J6); test: cell-based
I57T-MiRP1/HERG channels = I57T-MiRP1/HERG channels (Homo sapiens, UniProt Q12809); test: cell-based
Chain of I57T-MiRP1/HERG channels (Q12809 whole entry): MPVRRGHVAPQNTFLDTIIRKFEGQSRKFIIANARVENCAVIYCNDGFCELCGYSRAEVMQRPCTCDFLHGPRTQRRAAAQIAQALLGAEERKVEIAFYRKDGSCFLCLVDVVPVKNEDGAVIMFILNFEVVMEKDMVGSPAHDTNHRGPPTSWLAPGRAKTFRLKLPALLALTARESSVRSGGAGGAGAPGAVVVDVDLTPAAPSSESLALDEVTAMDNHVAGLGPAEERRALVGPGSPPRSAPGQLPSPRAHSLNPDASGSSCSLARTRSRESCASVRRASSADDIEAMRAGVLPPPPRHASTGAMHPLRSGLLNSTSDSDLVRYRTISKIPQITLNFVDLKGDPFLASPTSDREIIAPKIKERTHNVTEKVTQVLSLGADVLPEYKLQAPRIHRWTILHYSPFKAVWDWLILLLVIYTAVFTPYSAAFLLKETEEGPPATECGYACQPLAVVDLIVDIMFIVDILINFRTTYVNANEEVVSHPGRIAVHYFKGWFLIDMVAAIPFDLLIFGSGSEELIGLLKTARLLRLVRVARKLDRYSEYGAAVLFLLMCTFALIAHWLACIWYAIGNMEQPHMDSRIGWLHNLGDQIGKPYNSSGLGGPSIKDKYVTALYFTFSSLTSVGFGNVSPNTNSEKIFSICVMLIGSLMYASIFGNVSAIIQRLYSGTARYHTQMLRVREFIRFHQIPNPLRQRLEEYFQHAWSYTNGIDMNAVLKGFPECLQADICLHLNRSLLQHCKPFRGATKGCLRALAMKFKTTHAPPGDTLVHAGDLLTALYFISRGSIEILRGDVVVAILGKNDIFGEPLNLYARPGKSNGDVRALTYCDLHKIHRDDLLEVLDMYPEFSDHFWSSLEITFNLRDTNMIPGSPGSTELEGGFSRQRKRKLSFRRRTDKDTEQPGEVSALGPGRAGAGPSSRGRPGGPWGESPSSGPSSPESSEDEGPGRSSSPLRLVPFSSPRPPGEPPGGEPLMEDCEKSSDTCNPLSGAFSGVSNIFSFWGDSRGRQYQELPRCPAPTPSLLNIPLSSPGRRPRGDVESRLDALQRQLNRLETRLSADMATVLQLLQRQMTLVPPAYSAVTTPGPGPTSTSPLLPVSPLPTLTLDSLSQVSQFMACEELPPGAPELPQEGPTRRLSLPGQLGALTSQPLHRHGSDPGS
Chain of I57T-MiRP1/HERG channels (Q9Y6J6 whole entry I57T, further chain): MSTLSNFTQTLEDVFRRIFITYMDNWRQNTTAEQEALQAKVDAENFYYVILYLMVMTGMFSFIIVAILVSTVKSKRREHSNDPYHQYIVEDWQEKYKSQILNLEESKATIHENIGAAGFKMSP

Chain of wild type MiRP1/HERG channels (Homo sapiens, UniProt Q12809+Q9Y6J6) (Q12809 whole entry): as the sequence (Q12809 whole entry) above
Chain of wild type MiRP1/HERG channels (Homo sapiens, UniProt Q12809+Q9Y6J6) (Q9Y6J6 whole entry): as the sequence (Q9Y6J6 whole entry I57T, further chain) above, with T57I counted along it
Chain of wild type MiRP1/HERG channels (Homo sapiens, UniProt Q12809) (Q12809 whole entry): as the sequence (Q12809 whole entry) above
Chain of wild type MiRP1/HERG channels (Homo sapiens, UniProt Q12809) (Q9Y6J6 whole entry, further chain): as the sequence (Q9Y6J6 whole entry I57T, further chain) above, with T57I counted along it
Chain of Q9E-MiRP1 channels (Q9Y6J6 whole entry Q9E): as the sequence (Q9Y6J6 whole entry I57T, further chain) above, with Q9E, T57I counted along it
Chain of Q9E-MiRP1 channels (Q12809 whole entry): as the sequence (Q12809 whole entry) above

Row | SMILES | Sensitivity of Q9E-MiRP1 channels to drug inhibition relative to wild type (Q9E-MiRP1 channels) | Ki [1] | Level for half-maximal inhibition relative to plasma (therapeutic) levels in patients [2] | Ki (I57T-MiRP1/HERG channels)
1 | CC[C@H]1OC(=O)[C@H](C)[C@@H](O[C@H]2C[C@@](C)(OC)[C@@H](O)[C@H](C)O2)[C@H](C)[C@@H](O[C@@H]2O[C@H](C)C[C@H](N(C)C)[C@H]2O)[C@](C)(OC)C[C@@H](C)C(=O)[C@H](C)[C@@H](O)[C@]1(C)O [clarithromycin] | three-fold more sensitive | – | – | –
2 | O=c1[nH]c2ccccc2n1CCCN1CCN(C(c2ccccc2)c2ccccc2)CC1 [oxatomide] | – | 0.422 µM | close to their therapeutic concentrations | 1.88 µM
